Results: article PMC7923269 (Journal of Personalized Medicine, 2021)
Like-named read-outs stand apart in the source and are kept apart here.

How the values were obtained:
[1] = system: CYP3A; details: for Inhibition ratio of urinary 1β-OH-DCA excretion: after/before inhibition by fluvoxamine + voriconazole; for Urinary 1β-OH-DCA excretion: geometric mean (95% CI)
[2] = system: CYP3A; experiment: Oral midazolam pharmacokinetics (CYP3A phenotyping) in healthy volunteers at baseline, after inhibition and after induction; assay type: in vivo, human; details: MDZ 1 mg oral; for Cmax: human, plasma, po
Procedure: Healthy volunteers were administered, as part of the Geneva cocktail, MDZ 1 mg for CYP3A phenotyping at baseline (control session). During the inhibition session, participants received MDZ 1 mg after fluvoxamine intake (50 mg, two doses 12 h and 2 h before MDZ administration) and voriconazole intake (400 mg, one dose 2 h before MDZ administration). MDZ 1 mg was also received after a pretreatment with the inducer rifampicin (600 mg, one tablet every evening for seven days until the evening before administration of MDZ) (induction session). Urine samples were collected over 8 h after MDZ administration at each session. Venous blood samples (3 mL) were collected before (time 0) as well as 0.5, 1, 2, 3, 4, 6, and 8 h after probe drug administration. Breakfast and lunch were served approximately 1 h and 4 h, respectively, after the blood sampling. The trial is registered at http://www.clinicaltrials.gov (NCT01731067).
Analyses of MDZ and OH-MDZ in plasma were performed using a single reverse-phase high-performance liquid chromatography coupled with tandem mass spectrometry (LC-MS/MS) method as described in the study of Bosilkosvka et al..
The pharmacokinetic parameters of MDZ were obtained by standard noncompartmental methods using WinNonlin version 6.2.1 (Pharsight, Mountain View, CA, USA).
Inhibition ratios were calculated as follows:(1) Inhibition ratio = Metricafter inhibition/Metricbefore inhibition.
Similarly, induction ratios were calculated as follows:(3) Induction ratio = Metricafter induction/Metricbefore induction.

[3] = system: CYP3A; design: method as in PMID 19701237; details: after clarithromycin 250 mg twice daily for five days vs baseline; p = 0.04; cited from earlier work
[4] = induction session (rifampicin 600 mg, 7 days)
[5] = inhibition session (fluvoxamine + voriconazole)

In the case of C[C@H](CCC(=O)O)[C@H]1CC[C@H]2[C@@H]3CC[C@@H]4C[C@H](O)C[C@@H](O)[C@]4(C)[C@H]3C[C@H](O)[C@]12C [1β-OH-DCA, 1β-hydroxy-deoxycholic acid], the “Inhibition ratio of urinary 1β-OH-DCA excretion” value [1] is reported as 0.62, the “Inhibition ratio of urinary 1β-OH-DCA excretion” value ([1]; listed as 1β-OH -DCA) is reported as 0.62 (0.26–1.5) and the “Urinary 1β-OH-DCA excretion” value ([1]; baseline) is reported as 15.5 (5.8–41.3) µg/8 h. The “Urinary 1β-OH-DCA excretion” value [1, 4] was 61.8 (30.9–123.3) µg/8 h and the “Urinary 1β-OH-DCA excretion” value [1, 5] was 9.6 (4.1–22.5) µg/8 h.
For Cc1ncc2n1-c1ccc(Cl)cc1C(c1ccccc1F)=NC2 [MDZ, midazolam], the “Oral MDZ CL” value ([2]; baseline, geometric mean (95% CI)) was 143.0 (107.1–191.0) L/h, the “Oral MDZ CL” value [2, 4] was 3296 (2351–4622) L/h and the “Oral MDZ CL” value [2, 5] was 24.0 (19.7–29.3) L/h. For the same molecule, the Cmax ([2]; 1 mg, baseline) was 3.1 ng/mL, the Cmax [2, 4] was 0.15 ng/mL and the Cmax [2, 5] was 11.7 ng/mL.
For C[C@]12CCC(=O)C=C1CC[C@@H]1[C@@H]2[C@@H](O)C[C@@]2(C)[C@H]1CC[C@]2(O)C(=O)CO [cortisol], the “Increase in area under the concentration-time curve of plasma endogenous cortisol” value [3] is listed as 19%.
